Experiments:
[1] = tested on: adult patients with NDD-CKD and anemia, actively treated with an ESA; assay: Phase 3 ESA-treated NDD-CKD (Conversion) trial, vadadustat vs darbepoetin alfa; assay type: in vivo, human; conditions: Conversion study
Method: Two global, Phase 3, randomized, open-label, active-controlled, sponsor-blind clinical trials were conducted to evaluate safety and efficacy of vadadustat (Compound 1) vs the ESA darbepoetin alfa in adult patients with NDD-CKD and anemia. Patients recruited into the ESA-untreated NDD-CKD trial (N=1761) had hemoglobin <10 g/dL and were not previously being treated with an ESA. Patients recruited into the ESA-treated NDD-CKD trial (N=1750) had hemoglobin ranges of 8-11 g/dL (US) or 9-12 g/dL (non-US) and were actively treated with an ESA for anemia associated with CKD. Trial periods in both trials included 1) correction/conversion (weeks 0-23); 2) maintenance (weeks 24-52); 3) long-term treatment (week 53 to end of treatment); and 4) safety follow-up (end-of-treatment to 4 weeks later). The primary safety endpoint was time to first adjudicated major adverse cardiovascular event, defined as all-cause mortality, non-fatal myocardial infarction or non-fatal stroke pooled across both trials. The primary efficacy endpoint in each trial was mean change in hemoglobin from baseline to primary evaluation period (weeks 24-36) comparing vadadustat vs darbepoetin alfa treatment arms. Demographics and baseline characteristics were similar among patients in both trials, and typical for a large proportion of the NDD-CKD population. These trials helped define the safety and efficacy of vadadustat, an oral hypoxia-inducible factor prolyl hydroxylase inhibitor for management of anemia associated with NDD-CKD.
Two randomized, Phase 3, open-label, active-controlled clinical trials were conducted to evaluate the safety and efficacy of oral vadadustat versus injectable darbepoetin alfa: Correction (previously ESA-untreated) and Conversion (previously ESA-treated). Target enrollment for each was approximately 1850 patients recruited at approximately 390 and 480 sites in North America, Latin America, Europe, and the Asia Pacific for the ESA-untreated NDD-CKD trial and the ESA-treated NDD-CKD trial, respectively.
Trial Populations. Each trial recruited adults (>18 years of age) with NDD-CKD (estimated glomerular filtration rate 60 mL/min/1.73 m^2). […] In addition to the hemoglobin entry criteria, all patients were required to have serum ferritin ≥100 ng/mL and transferrin saturation 20% at screening in order to be randomized. In the ESA-untreated NDD-CKD trial, ESA use was permitted during screening, as per standard of care; however, patients were excluded if they received any ESA within 8 weeks of randomization. In the ESA-treated NDD-CKD trial, patients were actively maintained on ESA therapy, with at least one dose received within 6 weeks before or during screening. […]

[2] = tested on: stage 3, 4, or 5 CKD patients; assay: Phase 2a clinical trials in stage 3, 4, or 5 CKD patients (iron parameters vs placebo); assay type: in vivo, human
Method: In certain embodiments, unsaturated iron binding capacity (UIBC) may be determined by adding serum to an alkaline buffer/reductant solution containing a known concentration of iron to saturate the available binding sites on transferrin. The Ferrozine chromogen reacts only with the Fe^2+; therefore, an iron reductant is added to insure that all iron is present in the ferrous state. The excess unbound divalent iron reacts with Ferrozine chromogen to form a magenta complex, which is measure spectrophotometrically. The unsaturated iron binding capacity (UIBC) is equal to the difference measured in the concentrations of the added iron solution and the excess unbound iron. Serum TIBC is equal to total serum iron plus UIBC and may therefore be calculated using the results of the UIBC and serum iron determinations.
In certain embodiments, serum iron may be determined using a test based on the FerroZine method without deproteinization. Specimens are analyzed on the Roche Modular Instrument utilizing Roche Diagnostics Reagents. Under acidic conditions, iron is liberated from transferrin. The detergent clarifies lipemic samples. Ascorbate reduces the released Fe3+ ions to Fe2+ ions, which then react with FerroZine to form a colored complex. The color intensity is directly proportional to the iron concentration and can be measured photometrically.

Structure (SMILES): O=C(O)CNC(=O)c1ncc(-c2cccc(Cl)c2)cc1O [Compound 1, Vadadustat]
- mean (SD) Hb level ([1]; week 24 to week 36): 10.77 (0.98) g/dL
- mean (SD) Hb level ([1]; week 40 to week 52): 10.80 (1.04) g/dL
- least square mean difference in Hb (vadadustat vs darbepoetin alfa) ([1]; weeks 24 to 36, non-inferiority margin −0.75 g/dL): -0.01 g/dL
- least square mean difference in Hb (vadadustat vs darbepoetin alfa) ([1]; weeks 40 to 52): 0.00 g/dL
- serum iron levels ([2]; 6 weeks post administration): not associated with an increase in serum iron levels
- total iron binding capacity (TIBC) levels ([2]; 6 weeks post administration, compared to placebo treated patients): increase
- transferrin saturation (TSAT) ([2]; dose-related): decrease

Source: US20230285374A1, “THERAPEUTIC METHODS USING VADADUSTAT” (Akebia Therapeutics, Inc., priority 2019, published 2023)
